This note sets out measurements from ChEMBL document CHEMBL1155239, “Structure-guided development of selective TbcatB inhibitors” (J Med Chem, 2009).

As usually defined, the IC50 is the concentration that inhibits the measured activity by half. A high value points to weaker potency in that assay. The EC50 is the concentration at which the effect is half-maximal.

Some results are limits rather than exact numbers.

Experiment [1] in a line: Inhibition of Trypanosoma brucei cathepsin B expressed in Pichia pastoris.
Experiment [2] concerns the target Rhodesain (Trypanosoma brucei rhodesiense, UniProt Q95PM0). In words: Inhibition of Trypanosoma brucei rhodesiense rhodesain.
Experiment [3] concerns the target Procathepsin L (Homo sapiens, UniProt P07711). Kind of experiment: Inhibition of human liver cathepsin L.
The subject of experiment [4] is Trypanosoma brucei. In words: Antitrypanosomal activity against Trypanosoma brucei after 48 hrs. It counts as functional, organism-based.
For experiment [5], the system named is BJ. In words: Cytotoxicity against human BJ cells after 72 hrs by alamar blue assay. It counts as ADME, cell-based. In general terms: The colour change of resazurin is a common sign of viable cells or microbes.
Experiment [6] has as its system Raji. Kind of experiment: Cytotoxicity against human Raji cells after 72 hrs by alamar blue assay. It counts as ADME, cell-based.
Experiment [7] relates to HepG2. In words: Cytotoxicity against human HepG2 cells after 72 hrs by alamar blue assay. Type of experiment: ADME, cell-based. The conditions noted are these: HepG2, 72 h.
In experiment [8] the test system is HEK293. In words: Cytotoxicity against human HEK293 cells after 72 hrs by alamar blue assay. Particulars: HEK293, 72 h. Type of experiment: ADME, cell-based.
In experiment [9] the target is Cathepsin B (Homo sapiens, UniProt P07858). In words: Inhibition of human liver cathepsin B.

Procathepsin L, sequence (P07711 whole entry): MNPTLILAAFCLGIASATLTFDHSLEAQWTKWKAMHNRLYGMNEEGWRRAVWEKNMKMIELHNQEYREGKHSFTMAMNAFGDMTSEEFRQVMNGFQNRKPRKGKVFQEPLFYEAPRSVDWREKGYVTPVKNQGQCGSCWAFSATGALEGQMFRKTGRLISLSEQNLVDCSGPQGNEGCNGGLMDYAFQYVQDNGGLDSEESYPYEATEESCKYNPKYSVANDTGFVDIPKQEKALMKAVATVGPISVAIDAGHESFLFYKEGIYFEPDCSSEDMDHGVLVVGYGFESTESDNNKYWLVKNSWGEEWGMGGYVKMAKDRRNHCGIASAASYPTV
Rhodesain, sequence (Q95PM0 whole entry): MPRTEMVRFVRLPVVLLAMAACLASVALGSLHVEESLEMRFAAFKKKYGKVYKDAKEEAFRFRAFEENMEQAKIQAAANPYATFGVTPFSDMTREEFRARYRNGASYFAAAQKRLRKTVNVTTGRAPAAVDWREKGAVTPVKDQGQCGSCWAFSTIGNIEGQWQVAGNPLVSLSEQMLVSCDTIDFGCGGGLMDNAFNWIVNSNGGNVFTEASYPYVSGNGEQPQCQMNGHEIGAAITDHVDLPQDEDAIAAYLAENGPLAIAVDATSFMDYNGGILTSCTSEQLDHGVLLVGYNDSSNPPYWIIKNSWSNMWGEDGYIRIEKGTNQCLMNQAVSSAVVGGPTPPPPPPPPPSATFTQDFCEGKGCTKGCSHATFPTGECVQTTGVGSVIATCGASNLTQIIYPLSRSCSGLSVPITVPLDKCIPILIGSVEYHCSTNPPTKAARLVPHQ

Take `N#Cc1nc(NCc2cccc(-c3ccoc3)c2)c2ncn(CCCO)c2n1`: the 50% inhibitory concentration (IC50) in experiment [1] came out at 0.46 µM; in experiment [2], 0.03 µM; in [3], 0.6 µM. Moreover, the EC50 was 0.56 µM in experiment [4]; over 10 µM in experiment [5]; over 10 µM in experiment [6]; over 10 µM in experiment [7]; over 10 µM in [8].
Turning to `COc1ncc(-c2cccc(CNc3nc(C#N)nc4c3ncn4CCCO)c2)c(OC)n1`, the IC50 in experiment [1] was 2.9 µM; in [2], 4 µM; in experiment [3], 6 µM; in experiment [9], over 15 µM. For the same compound, the half-maximal effective concentration (EC50) was 5.9 µM in experiment [4]; over 10 µM in experiment [5]; over 10 µM in [6]; over 10 µM in [7]; over 10 µM in [8].
As to `COC(=O)c1ccccc1-c1cccc(CNc2nc(C#N)nc3c2ncn3CCCO)c1`, the IC50 in [1] was 1 µM; in experiment [2], over 10 µM; in experiment [3], 1.4 µM; in experiment [9], over 15 µM. Besides, the EC50 in [4] was 0.7 µM.
For the compound `N#Cc1nc(NCc2cccc(-c3ccc(Cl)c(Cl)c3)c2)c2ncn(CCCO)c2n1`, the IC50 in experiment [1] is 1.2 µM; in experiment [2], 0.9 µM; in experiment [3], 1.6 µM. Also, the EC50 in experiment [4] is 2.3 µM; in [5], over 10 µM; in experiment [6] it was over 10 µM; in experiment [7], over 10 µM; in experiment [8], over 10 µM.
With `N#Cc1nc(NCc2cccc(-c3ccco3)c2)c2ncn(CCCO)c2n1`, the IC50 in [1] was 1 µM; in experiment [2], 0.31 µM; in experiment [3], 0.84 µM. Besides, the EC50 in [4] was 1.6 µM; in experiment [5] it was over 10 µM; in experiment [6] it was over 10 µM; in [7] it was over 10 µM; in [8], over 10 µM.
As to `N#Cc1nc(NCc2cccc(-c3ccccc3)c2)c2ncn(CCCO)c2n1`, the results for the IC50 in [1], in [2] and in [3] were 1.8 µM, 0.7 µM and 0.8 µM, respectively. The EC50 in [4] was 1.4 µM; in [5], over 10 µM; in experiment [6], over 10 µM; in experiment [7] it was over 10 µM; in [8] it was over 10 µM.
With `Cc1cccc(C)c1-c1cccc(CNc2nc(C#N)nc3c2ncn3CCCO)c1`, the figures for the IC50 in experiment [1], in experiment [2] and in [3] were 0.27 µM, over 15 µM and 1 µM, respectively.
In the case of `CC(C)c1ccccc1-c1cccc(CNc2nc(C#N)nc3c2ncn3CCCO)c1`, the half-maximal inhibitory concentration (IC50) in [1] was determined as 0.31 µM; in experiment [3] it was 0.9 µM. The compound further returned an EC50 in experiment [4] of 0.63 µM.
Take `COC(=O)c1ccc(-c2cccc(CNc3nc(C#N)nc4c3ncn4CCCO)c2)cc1`: the IC50 is 1.6 µM in experiment [1], 1.2 µM in experiment [2] and 1.8 µM in experiment [3]. The EC50 is 4 µM in [4]; over 10 µM in [5]; over 10 µM in experiment [6]; over 10 µM in [7]; over 10 µM in [8].
Take `CN(C)c1cccc(-c2cccc(CNc3nc(C#N)nc4c3ncn4CCCO)c2)c1`: the IC50 stood at 1.2 µM in experiment [1], 0.9 µM in [2] and 1.4 µM in [3]. Further, the EC50 in experiment [5], in [6], in [7] and in [8] was over 10 µM throughout.
Compound `CC(=O)Nc1cccc(-c2cccc(CNc3nc(C#N)nc4c3ncn4CCCO)c2)c1` came in with a half-inhibitory concentration (IC50) in experiment [1] of 1.6 µM. Also, the EC50 in experiment [4] is 4.1 µM; in experiment [5], over 10 µM; in experiment [6] it was over 10 µM; in experiment [7], over 10 µM; in [8] it was over 10 µM.
In the case of `N#Cc1nc(NCc2cccc(-c3ccccc3Cl)c2)c2ncn(CCCO)c2n1`, the results for the IC50 in [1], in [2] and in experiment [3] were 1.3 µM, 20 µM and 16 µM, respectively.
`CC(C)Oc1c(Br)cccc1-c1cccc(CNc2nc(C#N)nc3c2ncn3CCCO)c1`: the IC50 in experiment [1] was 0.9 µM; in [2], 1.5 µM; in [3], 1.3 µM; in [9] it was over 50 µM. The EC50 in [5], in experiment [6], in experiment [7] and in experiment [8] was over 10 µM throughout.
As to `N#Cc1nc(NCc2cccc(-c3cccnc3)c2)c2ncn(CCCO)c2n1`, the figures for the IC50 in [1], in experiment [2] and in experiment [3] were 0.6 µM, 0.26 µM and 1.6 µM, respectively. Moreover, the EC50 in experiment [4] is 1.4 µM; in experiment [5], over 10 µM; in experiment [6], over 10 µM; in experiment [7] it was over 10 µM; in experiment [8], over 10 µM.
Consider `COc1ccc(-c2cccc(CNc3nc(C#N)nc4c3ncn4CCCO)c2)cc1`, for which the concentration for half-maximal inhibition (IC50) in [1] was 1.2 µM; in experiment [2] it was 0.8 µM; in experiment [3], 1.1 µM. The EC50 in experiment [5], in experiment [6], in [7] and in [8] was over 10 µM throughout.
As to `N#Cc1nc(NCc2cccc(-c3cccc(Cl)c3)c2)c2ncn(CCCO)c2n1`, the results for the IC50 in experiment [1], in experiment [2] and in experiment [3] were 0.8 µM, 1.2 µM and 0.7 µM, respectively. Also, the EC50 was 3.7 µM in experiment [4]; over 10 µM in [5]; over 10 µM in experiment [6]; over 10 µM in experiment [7]; over 10 µM in experiment [8].
With `N#Cc1nc(NCc2cccc(-c3ccccc3C(F)(F)F)c2)c2ncn(CCCO)c2n1`, the IC50 was 0.28 µM in experiment [1], 8 µM in experiment [2] and 1.5 µM in [3]. Further, the EC50 in experiment [5], in experiment [6], in [7] and in experiment [8] was over 10 µM throughout.
`N#Cc1nc(NCc2cccc(-c3cccs3)c2)c2ncn(CCCO)c2n1`: the IC50 in experiment [1] turned out to be 0.6 µM; in experiment [2], 0.8 µM; in experiment [3], 0.9 µM. Besides, the concentration giving a half-maximal response (EC50) in experiment [5], in [6], in experiment [7] and in experiment [8] was over 10 µM each time.
In the case of `N#Cc1nc(NCc2cccc(-c3cc4ccccc4n3S(=O)(=O)c3ccccc3)c2)c2ncn(CCCO)c2n1`, the IC50 in experiment [1] is over 15 µM; in experiment [2] it was 9 µM; in experiment [3], 1.8 µM; in experiment [9], over 50 µM. Besides, the EC50 in experiment [5], in experiment [6], in experiment [7] and in experiment [8] was over 10 µM each time.
As to `C=Cc1cccc(-c2cccc(CNc3nc(C#N)nc4c3ncn4CCCO)c2)c1`, the midpoint of inhibition in experiment [1], the IC50, lay at 0.8 µM. Further, the EC50 in [5], in experiment [6], in experiment [7] and in experiment [8] was over 10 µM each time.
As for `N#Cc1nc(NCc2cccc(-c3ccc(Cl)cc3)c2)c2ncn(CCCO)c2n1`, the figures for the IC50 in experiment [2] and in experiment [3] were 1.4 µM and 1.9 µM, respectively.
Turning to `N#Cc1nc(NCc2cccc(-c3cc(Cl)cc(Cl)c3)c2)c2ncn(CCCO)c2n1`, the figures for the IC50 in [1], in experiment [2] and in [3] were 1.2 µM, 1.1 µM and 0.9 µM, respectively. The concentration for a half-maximal effect (EC50) in [4] was 3.3 µM; in experiment [5] it was over 10 µM; in experiment [6], over 10 µM; in [7], over 10 µM; in experiment [8] it was over 10 µM.
As for `N#Cc1nc(NCc2cccc(-c3ccc4ccccc4c3)c2)c2ncn(CCCO)c2n1`, the IC50 in [1] was determined as 0.23 µM; in [2], 0.7 µM; in [3] it was 0.8 µM. For the same compound, the EC50 is 1.1 µM in experiment [4]; over 10 µM in [5]; over 10 µM in [6]; over 10 µM in experiment [7]; over 10 µM in experiment [8].
Consider `N#Cc1nc(NCc2cccc(-c3ccc4cc[nH]c4c3)c2)c2ncn(CCCO)c2n1`, for which the IC50 in experiment [1] came to 0.24 µM; in experiment [2], 0.26 µM; in experiment [3] it was 0.46 µM. Further, the EC50 in [4] is 0.8 µM; in experiment [5] it was over 10 µM; in experiment [6], over 10 µM; in experiment [7], over 10 µM; in experiment [8], over 10 µM.
As for `N#Cc1nc(NCc2cccc(-c3ccc4[nH]ccc4c3)c2)c2ncn(CCCO)c2n1`, the values for the 50% inhibitory concentration (IC50) in experiment [1], in experiment [2] and in experiment [3] were 0.25 µM, 0.5 µM and 0.19 µM, respectively. Besides, the EC50 in experiment [4] was 0.38 µM; in experiment [5], over 10 µM; in [6], over 10 µM; in [7], over 10 µM; in experiment [8], over 10 µM.
Consider `N#Cc1nc(NCc2cccc(-c3c(F)c(F)c(F)c(F)c3F)c2)c2ncn(CCCO)c2n1`, for which the half-inhibitory concentration (IC50) came to 0.9 µM in experiment [1], 5.2 µM in experiment [2] and 2.7 µM in [3]. Also, the EC50 in [5], in experiment [6], in experiment [7] and in experiment [8] was over 10 µM each time.
Regarding `N#Cc1nc(NCc2cccc(-c3ccsc3)c2)c2ncn(CCCO)c2n1`, the IC50 in experiment [1] stood at 0.37 µM; in experiment [2] it was 0.24 µM; in experiment [3] it was 0.48 µM. Moreover, the EC50 was 0.43 µM in [4]; over 10 µM in [5]; over 10 µM in [6]; over 10 µM in experiment [7]; over 10 µM in experiment [8].
For the compound `C=Cc1ccc(-c2cccc(CNc3nc(C#N)nc4c3ncn4CCCO)c2)cc1`, the concentration for half-maximal inhibition (IC50) in experiment [1] was 0.9 µM; in experiment [2], 1.8 µM; in experiment [3], 1.1 µM. The EC50 in experiment [5], in [6], in [7] and in experiment [8] was over 10 µM each time.
In the case of `Cc1ccccc1-c1cccc(CNc2nc(C#N)nc3c2ncn3CCCO)c1`, the values for the IC50 in [1], in experiment [2] and in experiment [3] were 0.39 µM, over 50 µM and 1.1 µM, respectively.
In experiment [2], `COC(=O)c1cccc(-c2cccc(CNc3nc(C#N)nc4c3ncn4CCCO)c2)c1` gave an IC50 of 0.5 µM. For the same compound, the EC50 in experiment [4] was 2.7 µM; in experiment [5], over 10 µM; in experiment [6], over 10 µM; in [7], over 10 µM; in [8], over 10 µM.
